Assay results: US6413934B1, “Streptavidin mutants having secondary functional domains” (University of Washington, priority 1998, dated 2002)
Numbering of substitutions follows the chain as printed. Like-named read-outs stand apart in the source and are kept apart here. Values belong to the molecule of their own block, whether it stands above or below them.

Experiments:
[1] = molecular target: integrin receptors (on rat aortic endothelial cells); experiment: cell-based or functional assay
[2] = test system: Rat aortic endothelial cells; experiment: peptide inhibition of endothelial cell adhesion to FN-SA and OSTP-SA; type: cell-based; conditions: for inhibitory effect on cell adhesion: soluble peptide preincubated with cells 15 minutes
Protocol: To confirm that the observed cell adhesion was directly RGD dependent, inhibition studies were conducted with GRGDSP (amino acids 89 to 94 of SEQ ID NO:2), GRGESP (SEQ ID NO:8), and GRADSP (SEQ ID NO:9) peptides.
Synthetic hexapeptides GRGDSP (amino acids 89 to 94 of SEQ ID NO:2), GRGESP (SEQ ID NO:8), and GRADSP (SEQ ID NO:9) were purchased from Gibco BRL. The inhibition assay was performed with the same protocol as for the cell adhesion assay except that the cells were incubated with the peptides for 15 minutes at room temperature prior to being plated onto the protein-coated wells.

[3] = test system: αvβ3 integrin present on the melanoma cells; experiment: peptide and antibody inhibition of melanoma cell adhesion to RGD streptavidin mutants; type: cell-based; conditions: human melanoma cells; antibodies at 10 μg/ml
Protocol: Melanoma cell adhesion assays on streptavidin coated polystyrene dishes were performed as described above for endothelial cell adhesion assays, except that DMEM with 0.1% BSA and 10 mM HEPES was used as culture medium and 2×10^5 cells were added to each well. Moαv cells that express high levels of αvβ3 integrin were derived from M21 melanoma cells. Adhesion assays were performed on self assembled monolayers constructed on 24 well tissue culture polystyrene dishes. The dishes were evaporated with about 400A gold, then incubated with a 0.1 mM ethanolic thiol solution of 20% biotinylated alkylthiol (BAT) and 80% polyethylene glycol (PEG) overnight. The wells were rinsed three times with 100% ethanol, blown dry with nitrogen, then incubated with 0.05 mg/ml of streptavidin in PBS (wild type or mutant) at 37° C. for one hour with side to side rocking. The protein solution was then removed, and the wells were rinsed three times with PBS before addition of cells. Antibody inhibition assays were performed essentially identically as for the RGD/RGE inhibition assays. LM609 and control were obtained from Chemicon International, Inc. (Calif.) and were used at 1:1000 dilution (10 μg/ml).

[4] = off-rate measurement with tritiated biotin; type: binding; conditions: 25° C., PBS pH 7.0
Protocol: Since the mutations occur in a loop opposite from the biotin binding pocket, the rational design of the molecule should obviate any effect of reducing the off-rate, or dissociation constant of streptavidin. This indeed was observed by experimental koff values for the RGD mutants that are within the standard deviation of previously calculated values for wild type streptavidin. Off-rate measurements were performed at 25° C. to quantitatively characterize the biotin affinity of the mutants and compare the results of the binding affinity of wild type streptavidin. Tritiated biotin, “hot” because it is radioactively labeled, was added to samples of the mutant proteins in a PBS solution, pH 7.0, and allowed to equilibrate for 1 to 2 hours. The off-rate reaction was then initiated by the addition of 5 μL of 15 mM “cold” biotin (non-radioactive) in PBS. As the tritiated biotin dissociated from the streptavidin mutants, aliquots were taken at fixed times and scintillation counts were performed to analyze the beta emission of the tritiated biotin. The natural logarithm of the bound tritiated fractions was plotted versus time to attain the off-rate koff, which is calculated from a linear regression of the data points.

[5] = test system: Rat aortic endothelial cells; experiment: endothelial cell adhesion assay on streptavidin-coated wells; type: cell-based
Protocol: Rat aortic endothelial cells were cultured in MDCB 131 media (Gibco BRL) with fetal bovine serum and used in the cell adhesion assays. Wild type and RGD streptavidin mutants were incubated in 96 well polystyrene plates overnight at 4° C. at various concentrations and then blocked with 1% BSA in PBS for 1 hour at 37° C. prior to the plating of cells (n=3). Alternatively, biotinylated BSA was incubated in the 96 wells overnight at 4° C., blocked with 1% BSA in PBS for one hour at 37° C., and then streptavidin (wild type or RGD) was incubated in the wells for one hour at 37° C. The protein solution was aspirated and the wells rinsed with sterile PBS before 50,000 cells were plated onto the protein coated wells for one hour at 37° C. The media was removed and the wells were rinsed twice with warm PBS (37° C.). The adherent cells were fixed with 4% paraformaldehyde (PFA) for 5 minutes and stained with 0.5% toluidine blue in 4% PFA for another 5 minutes at room temperature before the wells were rinsed by immersing the plate into a large bowl of tap water. The plate was dried by blotting the inverted plate onto paper towels and the remaining dye in the wells was solubilized with 1% SDS prior to reading the absorbance of the wells with a plate reader at 595 nm.

absorbance at 595 nm (adhered rat aortic endothelial cells) (absorbance at 595 nm) [1]: 0.3 | coating concentration at saturation of cell adhesion [1]: 100 nM
Molecule: Fibronectin Streptavidin (streptavidin having incorporated therein RGD with flanking amino acids as in fibronectin) (designed binder)

Molecule: GRADSP
inhibitory effect on cell adhesion [2]: no noticeable inhibitory effect

Molecule: GRGDSP [RGD peptide]
inhibition of cell adhesive activity of the RGD mutants [3]: can be inhibited | inhibitory effect on cell adhesion at 100 μm peptide ([2]; 100 μM peptide): inhibited cell adhesion | inhibitory effect on cell adhesion [2]: inhibited cell adhesion in a dose-dependent manner

Molecule: GRGESP
inhibitory effect on cell adhesion [2]: no noticeable inhibitory effect

absorbance at 595 nm (adhered rat aortic endothelial cells) (absorbance at 595 nm) [1]: 0.3 | coating concentration at saturation of cell adhesion [1]: 100 nM
Molecule: Osteopontin Streptavidin (streptavidin having incorporated therein RGD with flanking amino acids as in osteopontin) (designed binder)

Molecule: Wild type streptavidin: naturally occurring tetrameric biotin-binding protein of Streptomyces avidinii, SEQ ID NO:1
koff [4]: 3.3±0.1×10^−6 /sec | cell adhesion (absorbance at 595 nm, visual inspection) [5]: does not display any cell adhesion above control levels | cell adhesion (absorbance at 595 nm, visual inspection) ([5]; listed as wild type): comparable to those for 1% SDS

B1: FN-SA: streptavidin mutant incorporating the RGD sequence and flanking residues from fibronectin, SEQ ID NO:2 (protein)
chain: MRKIVVAAIAVSLTTVSITASASADPSKDSKAQVSAAEAGITGTWYNQLGSTFIVTAGADGALTGTYESAVGNAESRYVLTGRYDSAPGRGDSPGSGTALGWTVAWKNNYRNAHSATTWSGQYVGGAEARINTQWLLTSGTTEANAWKSTLVEHDTFTKVKPSAASIDAAKKAGVNNGNPLDAVQQ
koff [4]: 3.28e-06 s⁻¹

B2: OSTP-SA: streptavidin mutant incorporating the RGD sequence and flanking residues from osteopontin, SEQ ID NO:3 (protein)
chain: B1 chain with P94V
koff [4]: 3.13e-06 s⁻¹
